{"source": "paper PMC11876601", "about": "(Molecular Systems Biology, 2025)", "tested_on": "AsPC-1 cells", "assay": "Cell proliferation assay, chemodrug + ATR inhibitor (Incucyte confluence, 72 h);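 as to all read-outs here: underlying read-out for every value is AsPC-1 confluence after 72 h incubation at 37 °C and 5% CO2, divided by that well's starting confluence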", "details": "for Curve bottom / Curve slope / Curve top: fitted dose-response curve; for Curve bottom / Curve top: relative response; for Raw data (confluence at 72 h/confluence at 0 h): Berzosertib experiment; for EC50: Homo sapiens", "key": {"[1]": {"details": "AsPC1, Experiment GEM+ATRi_dose1"}, "[2]": {"details": "AsPC1, Experiment GEM+ATRi_dose2"}, "[3]": {"details": "AsPC1, Experiment GEM+ATRi_dose3"}}, "note": "Values joined by “and” are separate entries in the source; they are usually repeats but may differ in a detail not shown here. Equal values may be shown once. Read-outs that look alike come from different tables or passages of the source.", "data": [{"smiles": "CNCc1ccc(-c2cc(-c3nc(-c4ccc(S(=O)(=O)C(C)C)cc4)cnc3N)on2)cc1", "note": "[Berzosertib]", "values": [{"measurement": "Curve bottom", "setting": "AsPC1, Experiment ATRi (ATR inhibitor alone)", "result": "1.08 and 1.02 and 1.03"}, {"measurement": "Curve slope", "setting": "[1]", "result": "1.49 and 1.39 and 2.10"}, {"measurement": "Curve bottom", "setting": "[1]", "result": "1.02 and 0.99 and 0.96"}, {"measurement": "Curve top", "setting": "[1]", "result": "0.52 and 0.41 and 0.43"}, {"measurement": "Curve bottom", "setting": "[2]", "result": "1.02 and 0.89 and 0.87"}, {"measurement": "Curve top", "setting": "[2]", "result": "0.47 and 0.41"}, {"measurement": "Curve slope", "setting": "[3]", "result": "1.48 and 2.60 and 1.95"}, {"measurement": "Curve bottom", "setting": "[3]", "result": "1.02 and 0.71 and 0.76"}, {"measurement": "Curve top", "setting": "[3]", "result": "0.44 and 0.38 and 0.37"}, {"measurement": "Response", "setting": "AsPC1, GEM 100 nM + ATRi 30 nM", "result": 1.96}, {"measurement": "Response", "setting": "AsPC1, GEM 300 nM + ATRi 30 nM", "result": 1.76}, {"measurement": "Response", "setting": "AsPC1, GEM 1000 nM + ATRi 30 nM", "result": 1.64}, {"measurement": "Response", "setting": "AsPC1, GEM 3000 nM + ATRi 30 nM", "result": 1.69}, {"measurement": "Raw data (confluence at 72 h/confluence at 0 h)", "setting": "replicate R2, titrated drug dose 100 nM", "result": 1.63}, {"measurement": "Raw data (confluence at 72 h/confluence at 0 h)", "setting": "replicate R2, titrated drug dose 300 nM", "result": 3.32}, {"measurement": "Raw data (confluence at 72 h/confluence at 0 h)", "setting": "replicate R2, titrated drug dose 1000 nM", "result": 1.81}, {"measurement": "Raw data (confluence at 72 h/confluence at 0 h)", "setting": "replicate R2, titrated drug dose 3000 nM", "result": 0.95}, {"measurement": "Raw data (confluence at 72 h/confluence at 0 h)", "setting": "replicate R2, titrated drug dose 10000 nM", "result": 1.02}, {"measurement": "Raw data (confluence at 72 h/confluence at 0 h)", "setting": "replicate R3, titrated drug dose 3 nM", "result": 3.53}, {"measurement": "Raw data (confluence at 72 h/confluence at 0 h)", "setting": "replicate R3, titrated drug dose 10 nM", "result": 3.58}, {"measurement": "Raw data (confluence at 72 h/confluence at 0 h)", "setting": "replicate R3, titrated drug dose 30 nM", "result": 3.44}, {"measurement": "Raw data (confluence at 72 h/confluence at 0 h)", "setting": "replicate R3, titrated drug dose 100 nM", "result": 1.82}, {"measurement": "Raw data (confluence at 72 h/confluence at 0 h)", "setting": "replicate R3, titrated drug dose 300 nM", "result": 3.31}, {"measurement": "Raw data (confluence at 72 h/confluence at 0 h)", "setting": "replicate R3, titrated drug dose 1000 nM", "result": 1.82}, {"measurement": "Raw data (confluence at 72 h/confluence at 0 h)", "setting": "replicate R3, titrated drug dose 3000 nM", "result": 0.98}, {"measurement": "Raw data (confluence at 72 h/confluence at 0 h)", "setting": "replicate R3, titrated drug dose 10000 nM", "result": 1.08}, {"measurement": "Raw data (confluence at 72 h/confluence at 0 h)", "setting": "replicate R1, titrated drug dose 3 nM", "result": 3.58}, {"measurement": "Raw data (confluence at 72 h/confluence at 0 h)", "setting": "replicate R1, titrated drug dose 10 nM", "result": 3.42}, {"measurement": "Raw data (confluence at 72 h/confluence at 0 h)", "setting": "replicate R1, titrated drug dose 30 nM", "result": 3.67}, {"measurement": "Raw data (confluence at 72 h/confluence at 0 h)", "setting": "replicate R1, titrated drug dose 100 nM", "result": 3.44}, {"measurement": "Raw data (confluence at 72 h/confluence at 0 h)", "setting": "replicate R1, titrated drug dose 300 nM", "result": 3.48}, {"measurement": "Raw data (confluence at 72 h/confluence at 0 h)", "setting": "replicate R1, titrated drug dose 1000 nM", "result": 1.39}, {"measurement": "Raw data (confluence at 72 h/confluence at 0 h)", "setting": "replicate R1, titrated drug dose 3000 nM", "result": 1.11}, {"measurement": "Raw data (confluence at 72 h/confluence at 0 h)", "setting": "replicate R1, titrated drug dose 10000 nM", "result": 1.24}, {"measurement": "Raw data (confluence at 72 h/confluence at 0 h)", "setting": "replicate R2, titrated drug dose 3 nM", "result": 3.47}, {"measurement": "Raw data (confluence at 72 h/confluence at 0 h)", "setting": "replicate R2, titrated drug dose 10 nM", "result": 3.62}, {"measurement": "Raw data (confluence at 72 h/confluence at 0 h)", "setting": "replicate R2, titrated drug dose 30 nM", "result": 3.68}, {"measurement": "Response", "setting": "GEM 0 nM, ATRi 30 nM", "result": "3.26 and 3.50 and 3.35"}, {"measurement": "Response", "setting": "GEM 0 nM, ATRi 300 nM", "result": "3.38 and 2.28 and 2.67"}, {"measurement": "Response", "setting": "GEM 1 nM + ATRi 30 nM", "result": "3.40 and 3.47 and 3.32"}, {"measurement": "Response", "setting": "GEM 1 nM + ATRi 100 nM", "result": "3.25 and 2.45 and 2.30"}, {"measurement": "Response", "setting": "GEM 1 nM + ATRi 300 nM", "result": "3.17 and 2.72 and 2.68"}, {"measurement": "Response", "setting": "GEM 3 nM + ATRi 30 nM", "result": "3.21 and 3.37 and 3.20"}, {"measurement": "Response", "setting": "GEM 3 nM + ATRi 100 nM", "result": "3.16 and 3.42 and 3.23"}, {"measurement": "Response", "setting": "GEM 3 nM + ATRi 300 nM", "result": "3.33 and 2.50 and 2.49"}, {"measurement": "Response", "setting": "GEM 10 nM + ATRi 30 nM", "result": "3.02 and 3.24 and 3.22"}, {"measurement": "Response", "setting": "GEM 10 nM + ATRi 100 nM", "result": "2.95 and 3.25 and 2.97"}, {"measurement": "Response", "setting": "GEM 10 nM + ATRi 300 nM", "result": "2.69 and 2.35 and 2.32"}, {"measurement": "Response", "setting": "GEM 30 nM + ATRi 30 nM", "result": "2.26 and 2.69 and 2.57"}, {"measurement": "Response", "setting": "GEM 30 nM + ATRi 100 nM", "result": "2.27 and 2.08 and 1.96"}, {"measurement": "Response", "setting": "GEM 30 nM + ATRi 300 nM", "result": "2.06 and 1.65 and 1.60"}, {"measurement": "Response", "setting": "GEM 100 nM + ATRi 30 nM", "result": 1.68}, {"measurement": "Response", "setting": "GEM 100 nM + ATRi 100 nM", "result": "1.81 and 1.49 and 1.48"}, {"measurement": "Response", "setting": "GEM 100 nM + ATRi 300 nM", "result": "1.53 and 1.40 and 1.31"}, {"measurement": "Response", "setting": "GEM 300 nM + ATRi 30 nM", "result": "1.65 and 1.49"}, {"measurement": "Response", "setting": "GEM 300 nM + ATRi 100 nM", "result": "1.60 and 1.52 and 1.44"}, {"measurement": "Response", "setting": "GEM 300 nM + ATRi 300 nM", "result": "1.48 and 1.38 and 1.24"}, {"measurement": "Response", "setting": "GEM 1000 nM + ATRi 30 nM", "result": "1.43 and 1.48"}, {"measurement": "Response", "setting": "GEM 1000 nM + ATRi 100 nM", "result": "1.53 and 1.41 and 1.39"}, {"measurement": "Response", "setting": "GEM 1000 nM + ATRi 300 nM", "result": "1.41 and 1.36 and 1.30"}, {"measurement": "Response", "setting": "GEM 3000 nM + ATRi 30 nM", "result": "1.40 and 1.48"}, {"measurement": "Response", "setting": "GEM 3000 nM + ATRi 100 nM", "result": "1.58 and 1.38 and 1.33"}, {"measurement": "Response", "setting": "GEM 3000 nM + ATRi 300 nM", "result": "1.46 and 1.27"}, {"measurement": "EC50", "setting": "ASPC1, 72 h, AsPC1, Experiment ATRi (ATR inhibitor alone), single replicates R1-R3", "result": 647, "unit": "nM"}, {"measurement": "EC50", "setting": "ASPC1, 72 h, read-out: EC50 (cell growth), ATR inhibitor as single agent", "result": 766, "unit": "nM"}, {"measurement": "EC50", "setting": "ASPC1, 72 h, read-out: EC50 mean [nM], AsPC1, Experiment ATRi (ATR inhibitor alone), mean of replicates", "result": 719, "unit": "nM"}, {"measurement": "EC50", "setting": "ASPC1, 72 h, read-out: pEC50, AsPC1 (converted), Experiment ATRi (ATR inhibitor alone), single replicates R1-R3", "result": 646, "unit": "nM"}, {"measurement": "EC50", "setting": "ASPC1, read-out: EC50 mean [nM], AsPC1, Experiment ATRi (ATR inhibitor alone), mean of replicates", "result": 719, "unit": "nM"}]}]}
